Results reported in patent US20080145340A1, “Neuroactive agents and methods of their use” (The University of Western Australia, priority 2005, published 2008).

How the values were obtained:
Type in all cases: cell-based, rat
[1] = tested on: cortical neuronal cultures; test: Differential protein expression in preconditioned neuronal cultures, 2-D gel electrophoresis (Example 1); settings: CHX 0.3 μg/ml for 24 h; MK801 1 μM for 30 min, then 12 h; versus untreated DIV 12 cultures
Protocol: Cortical tissue from E18-E19 rats was dissociated in Hibernate E medium (Invitrogen, Carlsbad, Calif., USA) supplemented with 1.3 mM L-cysteine, 10 units/ml papain (ICN, Costa Mesa, Calif., USA) and 50 units/ml DNase (Sigma, St. Louis, Mo., USA) and washed in cold Dulbecco's Modified Eagle Medium (Invitrogen)/10% horse serum.
Neurons were resuspended in Neurobasal (NB; Invitrogen)/2% B27 supplement (Invitrogen), the cell concentration was adjusted to 1.8 million neurons/2 ml and 2 ml inoculated into each well of a 6 well plate pretreated as described below.
Neuronal cultures were maintained in a CO2 incubator (5% CO2, 95% air balance, 98% humidity) at 37° C. […]
Total protein was isolated from control and preconditioned neuronal cultures at the times outlined above by removing all the media from wells and washing once with phosphate-buffered saline, before the addition of lysis buffer (7M urea, 2M thiourea, 40 mM tris-HCl, 1% sulfobetaine 3-10, 2% CHAPS, 65 mM DTT, 1% Bio-Lyte carrier ampholytes pH 3-10; Bio-Rad, Hercules, Calif., USA). […] Protein content was determined by amino acid analysis using Waters AccQ Tag chemistry (Millipore Corporation, Milford, Mass., USA) as previously described (Cohen et al., 1983, in: Angeletti, R. H. (Ed.), Techniques in Protein Chemistry IV, Academic Press, San Diego). […]

[2] = tested on: cortical neuronal cultures; test: Cumene hydroperoxide oxidative stress, neuronal survival by MTS assay (Example 4); settings: for neuronal survival following cumene exposure: cumene 25 μM, survival 24 h later, untreated 15%, FIG. 8A
Protocol: (§1) Neurons were resuspended in Neurobasal (NB; Invitrogen) containing 2% B27 supplement (B27; Invitrogen).
(§2) Neuronal cultures were maintained in a CO2 incubator (5% CO2, 95% air balance, 98% humidity) at 37° C.

[3] = tested on: primary cortical neuronal cultures; test: Cumene oxidative stress injury model (Example 3); settings: protein added (0.1-100 nM) at the time of cumene exposure
Source text: Adenovirus vectors were used to upregulate specific proteins in primary cortical neuronal cultures. cDNA for proteins of interest was obtained by RT-PCR and cloned into pGEM. Sequence verified cDNA clones were then used to construct recombinant adenoviruses expressing genes of interest under the control of the rous sarcoma virus (RSV) promoter and the woodchuck post-transcriptional regulatory element (WPRE). The recombinant viruses also express the reporter GFP under the control of the CMV promoter. Protein of interest expression in recombinant adenoviruses was confirmed in transfected HEK and/or neuronal cultures. Control viruses consisted of an adenovirus expressing RFP, no gene (empty vector) and the anti-apoptotic gene Bcl-xl. […]
Cumene induced oxidative stress was performed by removing media from neuronal culture wells and adding 100 μl DMEM/N2 medium containing different concentrations of cumene (20-25 μM). […] Neuronal viability was measured and analysed as described above.

[4] = tested on: primary cortical neuronal cultures; test: In vitro ischaemia/stroke model, transient oxygen glucose deprivation (Example 3); settings: protein added (0.1-100 nM) at the time of in vitro ischaemia
[5] = tested on: cortical neuronal cultures; test: In vitro ischemia, neuronal survival by MTS assay (Example 4); settings: rhCyPA 100 nM; survival 24 h later; untreated 24%; FIG. 8B
Protocol: as §1, §2

[6] = tested on: ERK2 (p42); test: rhCyPA mediated ERK1/2 phosphorylation time course, Western blot densitometry; settings: rhCyPA 100 nM
Protocol: (§3) FIG. 7—time course of recombinant human (rh) CyPA mediated ERK1/2 phosphorylation in cortical neuronal cultures. Neuronal cultures were treated with rhCyPA (100 nM) for the indicated times. The resulting protein lysates were probed with antibody to detect phosphorylated ERK1/2 and then re-probed for total ERK1/2.
(§4) For protein extraction, brain tissue and cultured cells were lysed in buffer (50 mM Tris-HCl pH 7.5, 100 mM NaCl, 20 mM EDTA, 0.1% SDS, 0.2% deoxycholic acid, containing Complete™ protein inhibitor, Roche), vortexed briefly and clarified by centrifugation at 4° C. Protein concentrations were determined by the Bradford assay (Biorad, USA). Equivalent amounts of protein (5-10 μg per lane) were loaded and separated on 4-12% gradient SDS poly-acrylamide Bis-Tris mini-gels, (NuPAGE; Invitrogen) and transferred to a PVDF membrane. Membranes were blocked in PBS/T containing ovalbumin (1 mg/mL) for 1 min at room temperature before washing in PBS/T and PBS.
(§5) Membranes were incubated at 4° C. overnight in blocking solution containing primary antibody, washed and incubated in blocking solution containing HRP conjugated secondary antibody for 1 h at room temperature. Protein bands were detected using ECL Plus (Amersham, UK) and visualised by exposure to x-ray film (Hyperfilm; Amersham), scanned and quantified using NIH image. Primary antibodies used were; rabbit polyclonal anti-CyPA (1:25000; Biomol), mouse monoclonal anti-β-tubulin (0.5 μg/mL, Pharmingen, USA), mouse monoclonal anti-phospho ERK1/2 (1:5000; Santa Cruz), rabbit polyclonal anti-ERK1/2 (1:10000; Santa Cruz) and goat polyclonal anti-CD147 (1:10000; Santa Cruz). Secondary antibodies were donkey anti-rabbit IgG (1:25,000-1:50,000; Amersham), sheep anti-mouse IgG (1:10,000-1:20,000; Amersham) and rabbit anti-goat IgG (Zymed).
(§6) To determine if exogenously applied CyPA can mediate ERK1/2 activation we exposed neuronal cultures to rhCyPA protein (100 nM) and the results are summarised in FIG. 7. Addition of rhCyPA induced a rapid phosphorylation of ERK1 and ERK2, which peaked at 5 min, before returning to basal levels.

[7] = tested on: ERK1 (p44); test: as above; settings: rhCyPA 100 nM
Protocol: as §3, §4, §5, §6

`C[C@@H]1C[C@@H]([C@H](O)CC2CC(=O)NC(=O)C2)C(=O)[C@@H](C)C1` [CHX, cycloheximide] was tested, and the “overall change of protein expression after preconditioning” value [1] was “protein down-regulation”.

In the case of `C[C@]12N[C@H](Cc3ccccc31)c1ccccc12` [MK801], the “overall change of protein expression after preconditioning” value [1] is reported as “protein down-regulation”.

For `CC(C)c1ccccc1.OO` [cumene, cumene hydroperoxide, reference compound], the “cell survival after exposure to cumene” value ([2]; 25 μM cumene, dose response experiment, data not shown) was 15-30%.

In the case of “CyPA protein: CyPA protein suspended in PBS, added to neuronal cultures (0.1-100 nM)”, the “neuroprotection against cumene insult” value [3] is reported as “neuroprotective” and the “neuroprotection against in vitro ischaemia” value [4] is reported as “neuroprotective”.

“rhCyPA: recombinant human cyclophilin A (rhCyPA, Biomol)” was tested, and the “neuronal survival following in vitro ischemia” value [5] was 35%, the “ERK2 (p42) activation increase” value ([6]; at 5 min, FIG. 7) was 3.3 fold and the “time of peak phosphorylation of ERK2” value ([6]; then returning to basal levels) was 5 min. The “ERK1 (p44) activation increase” value ([7]; at 5 min, FIG. 7) was 2.6 fold, the “time of peak phosphorylation of ERK1” value ([7]; then returning to basal levels) was 5 min and the “neuronal survival following cumene exposure” value ([2]; rhCyPA 10 nM) was 56%. For the same compound, the “neuronal survival following cumene exposure” value ([2]; rhCyPA 100 nM) was 70%.
